{
  "source": "paper PMC2217457",
  "about": "(The Journal of General Physiology, 2004)",
  "key": {"[1]": {"test_system": "mouse AChR αL65V"}, "[2]": {"test_system": "mouse AChR αR55W", "conditions": "20 mM choline"}, "[3]": {"test_system": "mouse AChR αL35A"}, "[4]": {"test_system": "mouse AChR αN141V"}, "[5]": {"test_system": "mouse AChR αV46I"}, "[6]": {"test_system": "mouse AChR αA122L"}, "[7]": {"test_system": "mouse AChR αD138E"}, "[8]": {"test_system": "mouse AChR αS143A"}, "[9]": {"test_system": "mouse AChR αL146F"}, "[10]": {"test_system": "mouse AChR αV54L"}, "[11]": {"test_system": "mouse AChR αV29L"}, "[12]": {"test_system": "mouse AChR αQ48A"}, "[13]": {"test_system": "mouse AChR αL146M"}, "[14]": {"test_system": "mouse AChR αS143T"}, "[15]": {"test_system": "mouse AChR αM144T"}, "[16]": {"target": "T1, mouse muscle-type AChR wild-type (Mus musculus, UniProt P02716+P04756+P20782)", "T1 sequence (P04756 21-457)": "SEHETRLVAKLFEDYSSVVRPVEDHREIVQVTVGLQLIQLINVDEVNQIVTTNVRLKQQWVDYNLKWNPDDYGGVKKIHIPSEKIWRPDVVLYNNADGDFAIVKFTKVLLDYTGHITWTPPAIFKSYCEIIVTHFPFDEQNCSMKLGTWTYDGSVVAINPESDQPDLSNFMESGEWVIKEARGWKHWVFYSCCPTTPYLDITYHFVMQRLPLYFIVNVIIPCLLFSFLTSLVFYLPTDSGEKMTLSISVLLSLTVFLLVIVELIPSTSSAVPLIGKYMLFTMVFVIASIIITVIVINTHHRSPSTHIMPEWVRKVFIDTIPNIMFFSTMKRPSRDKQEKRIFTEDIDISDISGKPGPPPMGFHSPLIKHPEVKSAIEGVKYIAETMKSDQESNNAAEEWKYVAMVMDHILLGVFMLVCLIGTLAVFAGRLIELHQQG", "T1 sequence (P09690 24-501 partner)": "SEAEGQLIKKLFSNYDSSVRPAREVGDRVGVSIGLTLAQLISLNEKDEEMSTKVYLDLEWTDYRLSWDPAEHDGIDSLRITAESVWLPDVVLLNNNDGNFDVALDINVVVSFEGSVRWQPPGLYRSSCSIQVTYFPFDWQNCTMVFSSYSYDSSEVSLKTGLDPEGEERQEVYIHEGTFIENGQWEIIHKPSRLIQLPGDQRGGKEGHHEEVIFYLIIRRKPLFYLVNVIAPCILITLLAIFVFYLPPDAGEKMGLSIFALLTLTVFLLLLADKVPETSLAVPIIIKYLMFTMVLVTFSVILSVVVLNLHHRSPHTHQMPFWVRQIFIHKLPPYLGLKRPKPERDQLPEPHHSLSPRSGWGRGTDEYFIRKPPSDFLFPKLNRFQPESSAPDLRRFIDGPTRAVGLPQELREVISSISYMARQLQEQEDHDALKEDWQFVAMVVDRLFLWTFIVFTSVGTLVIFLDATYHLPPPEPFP", "T1 sequence (P02716 25-520)": "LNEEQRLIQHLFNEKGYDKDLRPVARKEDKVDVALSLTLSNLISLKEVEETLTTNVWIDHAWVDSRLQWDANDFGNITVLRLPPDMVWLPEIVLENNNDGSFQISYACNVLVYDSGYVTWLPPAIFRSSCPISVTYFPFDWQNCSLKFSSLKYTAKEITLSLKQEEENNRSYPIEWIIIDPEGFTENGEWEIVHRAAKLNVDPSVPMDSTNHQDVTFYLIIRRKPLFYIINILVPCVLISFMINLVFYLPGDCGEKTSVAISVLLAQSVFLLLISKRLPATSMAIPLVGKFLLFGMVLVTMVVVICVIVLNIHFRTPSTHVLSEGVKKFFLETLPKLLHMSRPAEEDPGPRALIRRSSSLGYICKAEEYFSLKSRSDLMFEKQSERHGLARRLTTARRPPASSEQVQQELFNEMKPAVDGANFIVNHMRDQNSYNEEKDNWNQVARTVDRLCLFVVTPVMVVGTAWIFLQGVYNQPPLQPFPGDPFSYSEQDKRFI", "T1 sequence (P20782 21-493)": "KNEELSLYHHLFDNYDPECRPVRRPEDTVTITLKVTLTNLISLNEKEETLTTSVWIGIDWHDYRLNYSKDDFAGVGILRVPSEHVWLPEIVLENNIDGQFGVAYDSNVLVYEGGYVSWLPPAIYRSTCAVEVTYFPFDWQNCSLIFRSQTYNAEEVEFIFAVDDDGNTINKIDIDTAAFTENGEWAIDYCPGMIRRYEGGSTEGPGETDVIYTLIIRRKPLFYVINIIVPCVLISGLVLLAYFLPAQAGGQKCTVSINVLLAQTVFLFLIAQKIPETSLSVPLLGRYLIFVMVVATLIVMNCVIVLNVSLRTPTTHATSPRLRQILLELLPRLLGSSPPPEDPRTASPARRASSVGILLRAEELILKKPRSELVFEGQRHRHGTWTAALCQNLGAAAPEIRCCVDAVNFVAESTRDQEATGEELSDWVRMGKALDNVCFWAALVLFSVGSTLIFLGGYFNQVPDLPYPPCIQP", "conditions": "wt AChR"}, "[17]": {"test_system": "mouse AChR αL40A"}, "[18]": {"test_system": "mouse AChR αF137M"}, "[19]": {"test_system": "mouse AChR αM144I"}, "[20]": {"test_system": "mouse AChR αM144A"}, "[21]": {"test_system": "mouse AChR αR20L", "conditions": "0.4 mM choline"}, "[22]": {"test_system": "mouse AChR αL110V"}, "[23]": {"test_system": "mouse AChR αL56A"}, "[24]": {"target": "T1, mouse muscle-type AChR wild-type", "conditions": "wt AChRs; ref Zhou et al., 1999; Grosman and Auerbach, 2000a; cited from earlier work"}, "[25]": {"test_system": "mouse AChR αN47A"}, "[26]": {"test_system": "mouse AChR αI116A"}, "[27]": {"test_system": "mouse AChR αR55A", "conditions": "20 mM choline"}, "[28]": {"test_system": "mouse AChR αN47K"}, "[29]": {"test_system": "mouse AChR αM144L"}, "[30]": {"test_system": "mouse AChR αS126A", "experiment": "Single-channel kinetics, αS126A AChR", "type": "cell-based", "conditions": "clusters at different concentrations of ACh"}, "[31]": {"test_system": "mouse AChR αP120G", "experiment": "Single-channel kinetics, αP120G AChR", "type": "cell-based", "conditions": "clusters at different concentrations of ACh"}, "[32]": {"test_system": "mouse AChR αS126V", "experiment": "Single-channel kinetics, αS126V AChR", "type": "cell-based", "conditions": "clusters at different concentrations of ACh"}, "[33]": {"test_system": "mouse AChR αV46E", "experiment": "Single-channel kinetics, αV46E AChR", "type": "cell-based"}, "[34]": {"test_system": "mouse AChR αV46A", "experiment": "Single-channel kinetics, αV46A AChR", "type": "cell-based"}},
  "data": [
    {"smiles": "C[N+](C)(C)CCO", "note": "[Choline, choline]", "values": [
      {"measurement": "α2 Choline (diliganded channel-closing rate constant)", "setting": "[1]; 0.4 mM choline", "result": "2,166"},
      {"measurement": "β2 Choline (diliganded channel-opening rate constant)", "setting": "[1]; 20 mM choline", "result": 124},
      {"measurement": "β2 Choline (diliganded channel-opening rate constant)", "setting": "[2]", "result": 98.2},
      {"measurement": "α2 Choline (diliganded channel-closing rate constant)", "setting": "[3]; 0.4 mM choline", "result": "2,423"},
      {"measurement": "β2 Choline (diliganded channel-opening rate constant)", "setting": "[3]; 20 mM choline", "result": 182},
      {"measurement": "α2 Choline (diliganded channel-closing rate constant)", "setting": "[4]; 0.4 mM choline", "result": "1,389 s^−1"},
      {"measurement": "β2 Choline (diliganded channel-opening rate constant)", "setting": "[4]; 20 mM choline", "result": 260, "unit": "s⁻¹"},
      {"measurement": "α2 Choline (diliganded channel-closing rate constant)", "setting": "[5]; 0.4 mM choline", "result": "1,982 s^−1"},
      {"measurement": "β2 Choline (diliganded channel-opening rate constant)", "setting": "[5]; 20 mM choline", "result": 249, "unit": "s⁻¹"},
      {"measurement": "α2 Choline (diliganded channel-closing rate constant)", "setting": "[6]; 0.4 mM choline", "result": "2,142"},
      {"measurement": "β2 Choline (diliganded channel-opening rate constant)", "setting": "[6]; 20 mM choline", "result": 358},
      {"measurement": "α2 Choline (diliganded channel-closing rate constant)", "setting": "[7]; 0.4 mM choline", "result": "1,456 s^−1"},
      {"measurement": "β2 Choline (diliganded channel-opening rate constant)", "setting": "[7]; 20 mM choline", "result": 239, "unit": "s⁻¹"},
      {"measurement": "α2 Choline (diliganded channel-closing rate constant)", "setting": "[8]; 0.4 mM choline", "result": "3,054"},
      {"measurement": "β2 Choline (diliganded channel-opening rate constant)", "setting": "[8]; 20 mM choline", "result": 79},
      {"measurement": "α2 Choline (diliganded channel-closing rate constant)", "setting": "[9]; 0.4 mM choline", "result": "2,234"},
      {"measurement": "β2 Choline (diliganded channel-opening rate constant)", "setting": "[9]; 20 mM choline", "result": 97},
      {"measurement": "α2 Choline (diliganded channel-closing rate constant)", "setting": "[10]; 0.4 mM choline", "result": "1,340"},
      {"measurement": "β2 Choline (diliganded channel-opening rate constant)", "setting": "[10]; 20 mM choline", "result": 124},
      {"measurement": "α2 Choline (diliganded channel-closing rate constant)", "setting": "[11]; 0.4 mM choline", "result": "2,644"},
      {"measurement": "β2 Choline (diliganded channel-opening rate constant)", "setting": "[11]; 20 mM choline", "result": 200},
      {"measurement": "α2 Choline (diliganded channel-closing rate constant)", "setting": "[12]; 0.4 mM choline", "result": "10,271 s^−1"},
      {"measurement": "β2 Choline (diliganded channel-opening rate constant)", "setting": "[12]; 20 mM choline", "result": "2,836 s^−1"},
      {"measurement": "α2 Choline (diliganded channel-closing rate constant)", "setting": "[13]; 0.4 mM choline", "result": "2,435"},
      {"measurement": "β2 Choline (diliganded channel-opening rate constant)", "setting": "[13]; 20 mM choline", "result": 118},
      {"measurement": "α2 Choline (diliganded channel-closing rate constant)", "setting": "[14]; 0.4 mM choline", "result": "2,200"},
      {"measurement": "β2 Choline (diliganded channel-opening rate constant)", "setting": "[14]; 20 mM choline", "result": 118},
      {"measurement": "α2 Choline (diliganded channel-closing rate constant)", "setting": "[15]; 0.4 mM choline", "result": "1,180"},
      {"measurement": "β2 Choline (diliganded channel-opening rate constant)", "setting": "[15]; 20 mM choline", "result": 54},
      {"measurement": "α2 Choline (diliganded channel-closing rate constant)", "setting": "[16]; 0.4 mM choline", "result": "2,100 s^−1"},
      {"measurement": "β2 Choline (diliganded channel-opening rate constant)", "setting": "[16]; 20 mM choline", "result": 100, "unit": "s⁻¹"},
      {"measurement": "α2 Choline (diliganded channel-closing rate constant)", "setting": "[17]; 0.4 mM choline", "result": "1,629"},
      {"measurement": "β2 Choline (diliganded channel-opening rate constant)", "setting": "[17]; 20 mM choline", "result": 312},
      {"measurement": "α2 Choline (diliganded channel-closing rate constant)", "setting": "[18]; 0.4 mM choline", "result": "1,017 s^−1"},
      {"measurement": "β2 Choline (diliganded channel-opening rate constant)", "setting": "[18]; 20 mM choline", "result": 225, "unit": "s⁻¹"},
      {"measurement": "α2 Choline (diliganded channel-closing rate constant)", "setting": "[19]; 0.4 mM choline", "result": "2,823"},
      {"measurement": "β2 Choline (diliganded channel-opening rate constant)", "setting": "[19]; 20 mM choline", "result": 93},
      {"measurement": "α2 Choline (diliganded channel-closing rate constant)", "setting": "[20]; 0.4 mM choline", "result": "2,514"},
      {"measurement": "β2 Choline (diliganded channel-opening rate constant)", "setting": "[20]; 20 mM choline", "result": 64},
      {"measurement": "α2 Choline (diliganded channel-closing rate constant)", "setting": "[21]", "result": "2,119"},
      {"measurement": "α2 Choline (diliganded channel-closing rate constant)", "setting": "[22]; 0.4 mM choline", "result": "1,874"},
      {"measurement": "β2 Choline (diliganded channel-opening rate constant)", "setting": "[22]; 20 mM choline", "result": 70},
      {"measurement": "α2 Choline (diliganded channel-closing rate constant)", "setting": "[23]; 0.4 mM choline", "result": "2,707"},
      {"measurement": "β2 Choline (diliganded channel-opening rate constant)", "setting": "[23]; 20 mM choline", "result": 217},
      {"measurement": "diliganded gating equilibrium constant, times smaller than ACh", "setting": "[24]", "result": 500, "unit": "times"},
      {"measurement": "α2 Choline (diliganded channel-closing rate constant)", "setting": "[25]; 0.4 mM choline", "result": "1,450 s^−1"},
      {"measurement": "β2 Choline (diliganded channel-opening rate constant)", "setting": "[25]; 20 mM choline", "result": 933, "unit": "s⁻¹"},
      {"measurement": "α2 Choline (diliganded channel-closing rate constant)", "setting": "[26]; 0.4 mM choline", "result": "2,238"},
      {"measurement": "β2 Choline (diliganded channel-opening rate constant)", "setting": "[26]; 20 mM choline", "result": 110},
      {"measurement": "β2 Choline (diliganded channel-opening rate constant)", "setting": "[27]", "result": 164},
      {"measurement": "α2 Choline (diliganded channel-closing rate constant)", "setting": "[28]; 0.4 mM choline", "result": "2,371 s^−1"},
      {"measurement": "β2 Choline (diliganded channel-opening rate constant)", "setting": "[28]; 20 mM choline", "result": 607, "unit": "s⁻¹"},
      {"measurement": "α2 Choline (diliganded channel-closing rate constant)", "setting": "[29]; 0.4 mM choline", "result": "2,911"},
      {"measurement": "β2 Choline (diliganded channel-opening rate constant)", "setting": "[29]; 20 mM choline", "result": 917}
    ]},
    {"smiles": "CC(=O)OCC[N+](C)(C)C", "note": "[ACh, acetylcholine]", "values": [
      {"measurement": "α2 ACh (diliganded channel-closing rate constant)", "setting": "[30]", "result": "2,598"},
      {"measurement": "β2 ACh (diliganded channel-opening rate constant)", "setting": "[30]", "result": "48,918"},
      {"measurement": "α2 ACh (diliganded channel-closing rate constant)", "setting": "[31]", "result": "2,006"},
      {"measurement": "β2 ACh (diliganded channel-opening rate constant)", "setting": "[31]", "result": "49,531"},
      {"measurement": "α2 ACh (diliganded channel-closing rate constant)", "setting": "[32]", "result": "1,770"},
      {"measurement": "β2 ACh (diliganded channel-opening rate constant)", "setting": "[32]", "result": "40,253"},
      {"measurement": "α2 ACh (diliganded channel-closing rate constant)", "setting": "[33]; low ACh", "result": "6,613 s^−1"},
      {"measurement": "β2 ACh (diliganded channel-opening rate constant)", "setting": "[33]; saturating ACh", "result": 795, "unit": "s⁻¹"},
      {"measurement": "α2 ACh (diliganded channel-closing rate constant)", "setting": "[34]; low ACh", "result": "4,135 s^−1"},
      {"measurement": "β2 ACh (diliganded channel-opening rate constant)", "setting": "[34]; saturating ACh", "result": "1,340 s^−1"}
    ]}
  ]
}
